# Test results as given in US5733934A, “Antiarrythmic and cardioprotective substituted indenoylguanidines” (priority 1996, dated 1998).
# Key:
# rat hearts = settings: isolated rat hearts; Eur. Heart J. 9 {supplement 1}: 167 (1988); cited from earlier work
# [1] = test system: disturbances in cardiac rhythm; settings: Circulation 79, 1257-1263 (1989); cited from earlier work
# Na^+ /H^+ -exchanger = target: T1, Na^+ /H^+ -exchanger (Oryctolagus cuniculus, UniProt P23791); test: Sodium-Proton exchange inhibition in rabbit erythrocytes; assay type: cell-based, rabbit (Albino, New Zealand strain); settings: 37° C., 1 hour, hyperosmolar sucrose buffer, 0.1 mM Ouabain, read-out: IC50 (concentration necessary to reduce the erythrocyte sodium content to 50%)
# T1 construct: Na^+ /H^+ -exchanger activity in the erythrocytes; endogenous in cells; host or cells: erythrocytes (whole blood from the ear vein) of cholesterol-fed New Zealand albino rabbits
# T1 sequence (P23791 whole entry): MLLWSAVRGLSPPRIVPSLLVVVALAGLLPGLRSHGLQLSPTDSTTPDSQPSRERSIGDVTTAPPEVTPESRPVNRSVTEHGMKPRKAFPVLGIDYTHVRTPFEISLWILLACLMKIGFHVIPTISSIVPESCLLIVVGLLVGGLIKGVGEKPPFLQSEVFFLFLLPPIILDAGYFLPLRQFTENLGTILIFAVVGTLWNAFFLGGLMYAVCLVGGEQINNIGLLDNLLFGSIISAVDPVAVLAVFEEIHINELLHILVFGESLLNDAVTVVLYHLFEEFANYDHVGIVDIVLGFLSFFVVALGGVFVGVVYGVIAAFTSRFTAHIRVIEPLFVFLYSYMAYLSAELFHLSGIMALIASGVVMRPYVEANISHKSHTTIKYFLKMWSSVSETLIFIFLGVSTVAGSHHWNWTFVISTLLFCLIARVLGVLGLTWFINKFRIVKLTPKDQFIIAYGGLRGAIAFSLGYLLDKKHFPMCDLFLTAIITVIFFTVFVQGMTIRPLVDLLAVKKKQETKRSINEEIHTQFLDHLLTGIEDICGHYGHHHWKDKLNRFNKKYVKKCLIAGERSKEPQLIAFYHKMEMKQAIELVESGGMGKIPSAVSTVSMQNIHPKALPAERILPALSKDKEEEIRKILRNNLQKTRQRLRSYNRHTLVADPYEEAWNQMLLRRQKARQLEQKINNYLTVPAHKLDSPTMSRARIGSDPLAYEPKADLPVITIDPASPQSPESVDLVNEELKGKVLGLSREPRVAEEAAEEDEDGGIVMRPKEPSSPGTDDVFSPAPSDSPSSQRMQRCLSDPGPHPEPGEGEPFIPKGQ
# Text: Sodium-Proton exchange inhibition in rabbit erythrocytes:
# Albino rabbits of New Zealand strain were fed with 2% cholesterol diet for six weeks prior to collecting blood for the determination of Na^+ /H^+ -exchanger activity in the erythrocytes. Eypercholesteremia has been reported to increase the exchanger activity in the rabbit erythrocytes (Scholz et al, 1990; Arteriosklerose--Neue Aspekte aus Zellbiologie und Molekulargenetik, Epidemiologie und Klinik; Assmann, G, et al, Eds, Braunschweig, Wiesbaden, Vieweg, 296-302). Blood samples were collected from the ear vein and hematocrit was determined. About 200 μl of blood was incubated at 37° C. for 1 hour with hyperosmolar sucrose buffer containing 0.1 mM Ouabain in the presence and absence of test sample. After the incubation period, the reaction was stopped by addition of 5 ml of ice cold MgCl2 solution containing 0.1 mM Ouabain. The erythrocytes were washed three times with 5 ml quantities of MgCl2 solution. They were hemolyzed by the addition of 4 ml of distilled water and the sodium content of the hemolyzed was determined by flame-photometry. The activity of the test compound was determined by its ability to reduce the sodium content of the erythrocyte and was expressed as IC50 which is the concentration necessary to reduce the erythrocyte sodium content to 50%.
# isolated rat heart = test: Reperfusion Induced Arrhythmias in the isolated rat heart; set-up: species or system rat (Charles Foster); settings: LAD ligation 15 min, reperfusion 30 min, read-out: IC50 for VFD (50% reduction of duration of ventricular fibrillation)
# Experimental: Reperfusion Induced Arrhythmias in the isolated rat heart:
# […] Charles Foster rats of either sex (250-300 g) were sacrificed by stunning and exsanguination. Hearts were quickly removed and perfused according to Langendorffs method. Different concentrations of test compound were added into the perfusing medium. After 20 min of the equilibration period Left Anterior Descending (LAD) coronary artery was ligated. 15 minutes later the ligature was removed and reperfusion was allowed for next 30 minutes. During reperfusion period ECG was monitored. Duration of Ventricular Fibrillation (VFD) was the main parameter of assessment. Anti-arrhythmic activity was examined as the concentration of the test compound required to cause a 50% reduction of the VFD.
# anaesthetized rats = test: Ischemia-Induced Arrhythmias in Anaesthetized Rats; assay type: in vivo, rat (Male Charles Foster); set-up: key to VF Percent inhibition: NP: No protection
# Experimental: Ischemia-Induced Arrhythmias in Anaesthetized Rats:
# Male Charles Foster rats (220-260 g) were anaesthetized with Pentobarbitone sodium. Animals were artificially ventilated. Blood pressure was recorded through carotid artery. Thoracotomy was performed to expose the heart. Left Anterior Descending (LAD) coronary artery was identified. Test compound was administered either orally […] before anaesthesia (40 minutes before LAD artery ligation) or intravenously (5 minutes before LAD artery ligation). Resulting arrhythmias during the 15 minute period of ligation were recorded and analyzed according to Lambeth Convention (Walker M. J. A, et al, 1988, Cardiovascular Research, 22, 447-455). Antiarrhythmic effect of the test compound was expressed as dose dependent inhibition of the duration of Ventricular Tachycardia (VT) and Ventricular Fibrillation (VF).
# anaesthetized rat = test: Myocardial Infarction in the Anaesthetized Rat; assay type: in vivo; settings: intravenous 5 minutes before ligation; 1 h ligation, 1 h reperfusion
# Experimental: Myocardial Infarction in the Anaesthetized Rat:
# Rats were prepared as in earlier experiments. Compounds were administered intravenously 5 minutes before ligation. The experiment consisted of one hour of ligation followed by one hour of reperfusion. Myocardial infarction was assessed by double dye technique using Evans blue and 2,3,5-Triphenyltetrazolium to identify area at risk and area of infarction respectively. Extent of infarction was expressed as a percent of area at risk. (Simpson et al, 1987, Circulation Research, 60, 666-673)
Structure (SMILES),suppression of artificially induced ventricular fibrillation (rat hearts),IC50 (Na^+ /H^+ -exchanger) [µM],IC50 (isolated rat heart) [µM],"VF Percent inhibition (anaesthetized rats; Intravenous, 0.1 mg/kg) [%]","VT Percent inhibition (anaesthetized rats; Intravenous, 0.1 mg/kg) [%]","VF Percent inhibition (anaesthetized rats; Intravenous, 0.3 mg/kg) [%]","VT Percent inhibition (anaesthetized rats; Intravenous, 0.3 mg/kg) [%]","VF Percent inhibition (anaesthetized rats; Intravenous, 1.0 mg/kg) [%]","VT Percent inhibition (anaesthetized rats; Intravenous, 1.0 mg/kg) [%]","VF Percent inhibition (anaesthetized rats; Oral, 1 mg/kg) [%]","VT Percent inhibition (anaesthetized rats; Oral, 1 mg/kg) [%]",Protection against infarction (anaesthetized rat) [%],further results
CCN(c1nc(N)c(C(=O)N=C(N)N)nc1Cl)C(C)C [ethylisopropylamiloride],even more potent than amiloride,–,–,–,–,–,–,–,–,–,–,–,–
N=C(N)NC(=O)c1nc(Cl)c(N)nc1N [amiloride],suppress an artificially induced ventricular fibrillation completely,–,–,–,–,–,–,–,–,–,–,–,antiarrhythmic effect [1]: only slight
CC1=C(C(=O)N=C(N)N)Cc2c(Cl)cccc21 [Compound 10],–,0.018,0.017,100,20 ± 24,100,81 ± 8,100,97 ± 1,100,67 ± 11,68,"VF Percent inhibition (anaesthetized rats; Oral, 0.1 mg/kg): NP; VT Percent inhibition (anaesthetized rats; Oral, 0.1 mg/kg): 32 ± 12%; VF Percent inhibition (anaesthetized rats; Oral, 0.3 mg/kg): 84%; VT Percent inhibition (anaesthetized rats; Oral, 0.3 mg/kg): 69 ± 11%"
CC1=C(C(=O)N=C(N)N)Cc2ccccc21 [Compound 2],–,0.09,0.025,100,57 ± 17,100,90 ± 3,100,98 ± 1,68,26 ± 0,17,"VF Percent inhibition (anaesthetized rats; Oral, 3 mg/kg): 93%; VT Percent inhibition (anaesthetized rats; Oral, 3 mg/kg): 31 ± 21%; VF Percent inhibition (anaesthetized rats; Oral, 10 mg/kg): 00%; VT Percent inhibition (anaesthetized rats; Oral, 10 mg/kg): 73 ± 8%"
